In patent US7790761B2, “Blockade of voltage dependent sodium channels” (University College London, priority 2000, dated 2010) one finds IC50 data, which are given here for 41 molecules.

The assay deals with sodium channels. The assay can be described thus: [14C]-labelled guanidine flux through sodium channels. In kind it is biochemical, rat. The settings on record: inhibition of flux of [14C]-labelled guanidine through sodium channels.

On to “5-[3-tert-Butyl-1-(2,4-dichlorobenzyl)pyrazol-5-yl]-4-methyltriazole-3-thiol”, for which the IC50 (in general, the concentration at which inhibition is half-maximal) is < 9 µM.

With `Cn1c(SCC(=O)C(C)(C)C)nnc1-c1cc(C(C)(C)C)nn1Cc1ccc(F)cc1` [1-{5-[5-tert-Butyl-2-(4-fluoro-benzyl)-2H-pyrazol-3-yl]-4-methyl-4H-[1,2,4]triazol-3-ylsulfanyl}-3,3-dimethyl-butan-2-one], the IC50 amounted to 13 µM.

On to `CC(C)(C)c1cc(C(=O)Nc2ccc(Br)c(Cl)c2)n(Cc2ccccc2)n1` [2-Benzyl-5-tert-butyl-2H-pyrazole-3-carboxylic acid (4-bromo-3-chloro-phenyl)-amide], for which the IC50 turned out to be 3 µM.

`CC(C)(C)c1cc(C(=O)Nc2ccc(Cl)cc2)n(Cc2ccccc2)n1` [2-Benzyl-5-tert-butyl-2H-pyrazole-3-carboxylic acid (4-chloro-phenyl)-amide] had an IC50 of 4.4 µM.

Take `CC(C)(C)c1cc(C(=O)NNC(=O)Nc2cccc(C(F)(F)F)c2)n(Cc2ccccc2)n1` [2-Benzyl-5-tert-butyl-2H-pyrazole-3-carboxylic arid N′-(3-trifluoromethylphenylcarbamoyl)hydrazide]: the IC50 stood at 0.5 µM.

Take `CCn1nc(C)cc1-c1nnc(SCc2ccccc2)n1-c1ccccc1` [3-(Benzylthio)-5-(1-ethyl-3-methyl-1H-pyrazol-5-yl)-4-phenyl-4H-1,2,4-triazolehemihydrate]: the IC50 was found to be 20 µM.

`C#CCSc1nnc(-c2cc(C(C)(C)C)nn2Cc2ccc(Cl)cc2Cl)n1-c1ccccc1` [3-[3-(tert-Butyl)-1-(2,4-dichlorobenzyl)-1H-pyrazol-5-yl]-4-phenyl-5-(prop-2-ynylthio)-4H-1,2,4-tziazole] registered an IC50 of 18 µM.

`Cc1ccc(Cn2nc(C(=O)Nc3ccccc3)cc2C)cc1` [5-Methyl-1-(4-methyl-benzyl)-1H-pyrazole-3-carboxylic acid phenylamide] displayed an IC50 of 23 µM.

In turn, `Cc1ccc(Cn2nc(C)cc2C(=O)Nc2cccc(C(F)(F)F)c2)cc1` [5-Methyl-2-(4-methyl-benzyl)-2H-pyrazole-3-carboxylic acid (3-trifluoromethyl-phenyl)-amide] returned an IC50 of 6 µM.

For the molecule `Cc1cccc(Cn2nc(C(C)(C)C)cc2-c2nnc(S)n2C2CCCCC2)c1` [5-[3-(tert-Butyl)-1-(3-methylbenzyl)pyrazol-5-yl]-4-cyclohexyl-1,2,4-triazole-3-thiol], the IC50 was < 9 µM.

As for `CCOC(=O)CSc1nnc(-c2cc(C(C)(C)C)nn2Cc2cccc(C)c2)n1C1CCCCC1` [Ethyl 2-([5-[3-(tert-butyl)-1-(3-methylbenzyl)-1H-pyrazol-5-yl]-4-cyclohexyl-4H-1,2,4-triazol-3-yl]thio)acetate], the IC50 was < 9 µM.

`O=C(NO)c1ccc(-c2nn(Cc3ccccc3)c3ccccc23)o1` [Example 6, 1-Benzyl-3-(5-hydroxylaminocarbonyl-2-furyl)-1H-indazole] had an IC50 of 30.9 µM.

`CC(C)(C)c1cc(C(=O)Nc2ccccc2)n(Cc2ccccc2)n1` [Example 9, 2-Benzyl-5-tert-butyl-2H-pyrazole-3-carboxylic acid phenylamide]: the IC50 is < 9 µM.

`CC(C)(C)c1cc(C(=O)NCc2ccccc2)n(Cc2ccccc2)n1` [Example 10, 2-Benzyl-5-tert-butyl-2H-pyrazole-3-carboxylic acid benzylamide] showed a 50% inhibitory concentration (IC50) of 7 µM.

For `O=C(Nc1ccccc1)c1cc(-c2ccccc2)n(-c2ccc(Cl)cc2)n1` [Example 11, 1-(4-Chloro-phenyl)-5-phenyl-1H-pyrazole-3-carboxylic acid phenylamide], the IC50 is 18 µM.

Take `COc1ccc(NC(=O)c2cc(C(C)(C)C)nn2Cc2ccc(Cl)cc2Cl)cc1` [Example 12, 5-tert-Butyl-2-(2,4-dichloro-benzyl)-2H-pyrazole-3-carboxylic acid (4-methoxy-phenyl)-amide]: the IC50 was < 9 µM.

Molecule `CCn1nc(-c2cccs2)cc1C(=O)Nc1ccc(Cl)cc1` [Example 13, 2-Ethyl-5-thiophen-2-yl-2H-pyrazole-3-carboxylic acid (4-chloro-phenyl)-amide] registered an IC50 of 17 µM.

The molecule `CC(C)(C)c1cc(C(=O)Nc2ccc(Cl)cc2)n(Cc2ccc(Cl)cc2Cl)n1` [Example 14, (S)-5-tert-Butyl-2-(2,4-dichloro-benzyl)-2H-pyrazole-3-carboxylic acid (4-chloro-phenyl)-amide] came in with an IC50 of 29 µM.

As to `CC(C)(C)c1cc(C(=O)NCCc2ccccc2)n(Cc2ccc(Cl)cc2Cl)n1` [Example 15, 5-tert-Butyl-2-(2,4-dichloro-benzyl)-2H-pyrazole-3-carboxylic acid phenethyl-amide], the IC50 turned out to be 10 µM.

With `CCn1nc(-c2cccs2)cc1C(=O)NCCc1ccccc1` [Example 16, (S)-2-Ethyl-5-thiophen-2-yl-2H-pyrazole-3-carboxylic acid phenethyl-amide], the IC50 was determined as 13 µM.

With `CC(C)(C)c1cc(C(=O)Nc2ccccc2)n(Cc2ccc(Cl)cc2Cl)n1` [Example 17, 5-tert-Butyl-2-(2,4-dichloro-benzyl)-2H-pyrazole-3-carboxylic acid phenylamide], the IC50 was 10 µM.

Turning to `CC(C)(C)c1cc(C(=O)NCc2ccccc2)n(Cc2ccc(Cl)cc2Cl)n1` [Example 18, 5-tert-Butyl-2-(2,4-dichloro-benzyl)-2H-pyrazole-3-carboxylic acid benzylamide], the IC50 was found to be 9 µM.

With `CN(C)c1ccc(NC(=O)c2cc(-c3ccccc3)n(-c3ccc(Cl)cc3)n2)cc1` [Example 19, 1-(4-Chloro-phenyl)-5-phenyl-1H-pyrazole-3-carboxylic acid (4-dimethylamino-phenyl)-amide], the IC50 was found to be 5 µM.

The molecule `CC(C)(C)c1ccc(NC(=O)c2cc(-c3ccccc3)n(-c3ccc(Cl)cc3)n2)cc1` [Example 20, 1-(4-Chloro-phenyl)-5-phenyl-1H-pyrazole-3-carboxylic acid (4-tert-butyl-phenyl)-amide] had an IC50 of 20 µM.

On to `Cc1cc(C(=O)Nc2ccc(C(C)(C)C)cc2)n(C(C)(C)C)n1` [Example 21, 2-tert-Butyl-5-methyl-2H-pyrazole-3-carboxylic acid (4-tert-butyl-phenyl)-amide], for which the IC50 was < 9 µM.

Take `Cc1cc(C(=O)Nc2ccc(Cl)c(Cl)c2)n(C(C)(C)C)n1` [Example 22, 2-tert-Butyl-5-methyl-2H-pyrazole-3-carboxylic acid (3,4-dichloro-phenyl)-amide]: the IC50 was < 9 µM.

As for `Cn1nc(C(C)(C)C)cc1C(=O)Nc1ccc(Cl)c(Cl)c1` [Example 23, 5-tert-Butyl-2-methyl-2H-pyrazole-3-carboxylic acid (3,4-dichloro-phenyl)-amide], the IC50 is < 9 µM.

`CC(C)(C)c1cc(C(=O)Nc2ccc(Cl)c(Cl)c2)n(Cc2ccccc2)n1` [Example 24, 2-Benzyl-5-tert-butyl-2H-pyrazole-3-carboxylic acid (3,4-dichloro-phenyl)-amide]: the IC50 was < 9 µM.

`CC(C)(C)c1ccc(NC(=O)c2cc(C(C)(C)C)nn2Cc2ccccc2)cc1` [Example 25, 2-Benzyl-5-tert-butyl-2H-pyrazole-3-carboxylic acid (4-tert-butyl-phenyl)-amide]: inhibition was half-maximal at 18 µM (IC50).

`CN(C)c1ccc(NC(=O)c2cc(C(C)(C)C)nn2Cc2ccccc2)cc1` [Example 27, 2-Benzyl-5-tert-butyl-2H-pyrazole-3-carboxylic acid (4-dimethylamino-phenyl)-amide]: the IC50 is < 9 µM.

Turning to `CC(C)(C)c1cc(C(=O)Nc2cccc(-c3cnco3)c2)n(Cc2ccccc2)n1` [Example 28, 2-Benzyl-5-tert-butyl-2H-pyrazole-3-carboxylic acid (3-oxazol-5-yl-phenyl)-amide], the IC50 is < 9 µM.

In the case of `Cn1nc(C(C)(C)C)cc1C(=O)Nc1cccc(-c2cnco2)c1` [Example 29, 5-tert-Butyl-2-methyl-2H-pyrazole-3-carboxylic acid (3-oxazol-5-yl-phenyl)-amide], the IC50 stood at 9 µM.

`CC(C)(C)c1cc(NC(=O)c2cc(-c3ccccc3)n(-c3ccc(Cl)cc3)n2)no1` [Example 30, 1-(4-Chloro-phenyl)-5-phenyl-1H-pyrazole-3-carboxylic acid (5-tert-butyl-isoxazol-3-yl)-amide] had an IC50 of 15 µM.

`Cc1cc(C(=O)Nc2ccc(C(=O)Nc3ccccc3)cc2)n(C(C)(C)C)n1` [Example 31, 2-tert-Butyl-5-methyl-2H-pyrazole-3-carboxylic acid (4-phenylcarbamoyl-phenyl)-amide] came in with an IC50 of 22 µM.

As for `CC(C)(C)c1cc(C(=O)Nc2cccc(C(=O)Nc3ccccc3)c2)n(Cc2ccccc2)n1` [Example 32, 2-Benzyl-5-tert-butyl-2H-pyrazole-3-carboxylic acid (3-phenylcarbamoyl-phenyl)-amide], the IC50 is 22 µM.

As to `Cn1nc(C(C)(C)C)cc1C(=O)Nc1cccc(C(=O)Nc2ccccc2)c1` [Example 33, 5-tert-Butyl-2-methyl-2H-pyrazole-3-carboxylic acid (3-phenylcarbamoyl-phenyl)-amide], the IC50 worked out at 22 µM.

With `CC(C)(C)c1cc(C(=O)Nc2ccc(Cl)nc2)n(Cc2ccccc2)n1` [Example 34, 2-Benzyl-5-tert-butyl-2H-pyrazole-3-carboxylic acid (6-chloro-pyridin-3-yl)-amide], the IC50 is < 9 µM.

With `Cc1cc(C(=O)Nc2ccc(Cl)nc2)nn1C(C)(C)C` [Example 35, 1-tert-Butyl-5-methyl-1H-pyrazole-3-carboxylic acid (6-chloro-pyridin-3-yl)-amide], the IC50 was 5 µM.

`CC(=O)Nc1ccc(NC(=O)c2cc(C)n(C(C)(C)C)n2)cc1` [Example 36, 1-tert-Butyl-5-methyl-1H-pyrazole-3-carboxylic acid (4-acetylamino-phenyl)-amide]: the concentration for half-maximal inhibition (IC50) worked out at 23 µM.

With `Cc1cc(C(=O)Nc2ncccc2OCc2ccccc2)nn1C(C)(C)C` [Example 37, 1-tert-Butyl-5-methyl-1H-pyrazole-3-carboxylic acid (3-benzyloxy-pyridin-2-yl)-amide], the IC50 is < 9 µM.

`CC(=O)Nc1ccc(NC(=O)c2cc(C)n(Cc3ccc(C)cc3)n2)cc1` [Example 38, 5-Methyl-1-(4-methyl-benzyl)-1H-pyrazole-3-carboxylic acid (4-acetylamino-phenyl)-amide] yielded an IC50 of 14 µM.
